The values below come from US20200281928A1, “VITAMIN B1 IN HIGH DOSES FOR USE IN THE MEDICAL TREATMENT OF MOTOR SYMPTOMS OF SOME SPORADIC NEURODEGENERATIVE DISEASES, OF GENETIC ORIGIN, AND OF CLUSTER HEADACHE AND OF MIGRAINE HEADACHE” (priority 2017, published 2020).

Read-outs that look alike come from different tables or passages of the source.

The test system of assay [1] is Sporadic spinocerebellar ataxia. The following applies: for Improvement of motor symptoms: SARA, two months of therapy; for SARA scale after therapy: two vials of thiamine 100 mg/ml twice a week, two months, scale 0-40. How it is done:
The diagnosis was made by exclusion, by excluding the genetic forms of spino cerebellar ataxia and the tumour secondary forms.
The patients were evaluated with SARA (Scale for Assessment and Rating of Ataxia), scale validated for all disorders of cerebellar type. The score of this scale ranges from 0 (absence of symptoms) to 40 (maximum deficit).
The diagnoses were made by Italian primary neurological centres based upon the anamnestic, clinical, evolutionary, neuroradiological and neurophysiological and molecular chemistry data.

Assay [2] relates to Multisystemic Atrophy (MSA) Type Parkinson (Type P). The following applies: for Improvement of motor symptoms: UPDRS portion III, two months of therapy; for UPDRS portion III after therapy: five 100 mg/ml vials intramuscularly per week plus low doses of other group b vitamins and magnesium, two months, scale 0-56. Here is the method:
We treated four patients affected by such pathology, two women and two men with five vials intramuscularly per week of vitamin B1. One vial included 100 mg/ml of thiamine. The injection was performed each morning for the first five days of the week. The dose was determined empirically based upon the disease progression rapidity.
(§1) Moreover, low doses of all other vitamins of group b, including folic acid, 150 mg of magnesium citrate and 150 mg of magnesium malate, were associated to the treatment.
The patients were evaluated with UPDRS (Unified Parkinson's Disease Rating Scale), scale validated for all Parkinson forms.
(§2) The diagnoses were made by Italian primary neurological centres based upon anamnestic, clinical, evolutionary, neuroradiological and neurophysiological data.

Assay [3] has as its system Multisystemic Atrophy (MSA) of Cerebellar Type (Type C). The following applies: for Improvement of motor symptoms: SARA, two months of therapy; for SARA scale after therapy: five 100 mg/ml vials intramuscularly per week plus low doses of other group b vitamins and magnesium, two months, scale 0-40. Here is the method:
We treated three patients affected by such pathology with five vials intramuscularly per week of vitamin B1. A vial included 100 mg/ml of thiamine. The injection was performed every morning for the first five days of the week. The dose was determined empirically based upon the disease progression rapidity.
as §1
The patients were evaluated with SARA (Scale for Assessment and Rating of Ataxia), scale validated for all disorders of cerebellar type. The score of this scale ranges 0 (absence of symptoms) to 40 (maximum deficit).
as §2

`Cc1ncc(C[n+]2csc(CCO)c2C)c(N)n1` [vitamin B1, thiamine]: the “Improvement of motor symptoms” value was 33.4% in assay [1] (patient N1 (person nine)); 50.0% in assay [1] (patient N2 (person four)); 30.8% in assay [2] (patient N1 (person eleven)); 11.8% in assay [2] (patient N2 (person ten)); 55.5% in assay [2] (patient N3 (person three)); 47.6% in assay [2] (patient N4). Moreover, the results for the “Improvement of motor symptoms” value in assay [3] (patient N1 (person one)), in assay [3] (patient N2 (person eight)) and in assay [3] (patient N3) were 14.3%, 37.5% and 16.0%, respectively. In addition, the “SARA scale after therapy” value in assay [1] (patient N1 (person nine), before therapy 9) is 6 scores; in assay [1] (patient N2 (person four), before therapy 6), 3 scores; in assay [3] (patient N1 (person one), before therapy 7) it was 6 scores; in assay [3] (patient N2 (person eight), before therapy 8), 3 scores; in assay [3] (patient N3, before therapy 25), 21 scores. Also, the “UPDRS portion III after therapy” value in assay [2] (patient N1 (person eleven), before therapy 26) was determined as 18 scores; in assay [2] (patient N2 (person ten), before therapy 34) it was 30 scores; in assay [2] (patient N3 (person three), before therapy 9), 5 scores; in assay [2] (patient N4, before therapy 21) it was 10 scores.
